Here are results for one compound from doi:10.1101/2023.10.03.560722, “Drug Discovery in Low Data Regimes: Leveraging a Computational Pipeline for the Discovery of Novel SARS-CoV-2 Nsp14-MTase Inhibitors” (bioRxiv, 2024).

Holding throughout (type): biochemical
One assay addresses SUV420H2 (Homo sapiens, UniProt Q86Y97). Nature of the assay: human MTase selectivity panel.
A further assay concerns the target T1, SUV39H1 (Homo sapiens, UniProt O43463).
T1 sequence (O43463 1-412): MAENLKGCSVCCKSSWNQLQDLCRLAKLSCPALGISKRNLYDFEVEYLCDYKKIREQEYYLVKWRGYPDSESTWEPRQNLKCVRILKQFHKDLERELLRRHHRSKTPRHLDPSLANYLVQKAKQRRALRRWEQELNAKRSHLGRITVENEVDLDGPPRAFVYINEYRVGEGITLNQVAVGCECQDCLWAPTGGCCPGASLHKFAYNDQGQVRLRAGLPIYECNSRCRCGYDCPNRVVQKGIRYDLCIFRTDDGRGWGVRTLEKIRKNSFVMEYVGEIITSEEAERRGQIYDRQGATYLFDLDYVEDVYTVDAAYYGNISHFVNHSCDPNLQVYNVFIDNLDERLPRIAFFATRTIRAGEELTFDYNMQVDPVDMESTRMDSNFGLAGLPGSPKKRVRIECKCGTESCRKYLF
Nature of the assay: human MTase selectivity panel.

Assay [1] concerns the target T2, PRMT7 (protein arginine methyltransferase 7) (Homo sapiens, UniProt Q9NVM4).
T2 sequence (Q9NVM4 1-692): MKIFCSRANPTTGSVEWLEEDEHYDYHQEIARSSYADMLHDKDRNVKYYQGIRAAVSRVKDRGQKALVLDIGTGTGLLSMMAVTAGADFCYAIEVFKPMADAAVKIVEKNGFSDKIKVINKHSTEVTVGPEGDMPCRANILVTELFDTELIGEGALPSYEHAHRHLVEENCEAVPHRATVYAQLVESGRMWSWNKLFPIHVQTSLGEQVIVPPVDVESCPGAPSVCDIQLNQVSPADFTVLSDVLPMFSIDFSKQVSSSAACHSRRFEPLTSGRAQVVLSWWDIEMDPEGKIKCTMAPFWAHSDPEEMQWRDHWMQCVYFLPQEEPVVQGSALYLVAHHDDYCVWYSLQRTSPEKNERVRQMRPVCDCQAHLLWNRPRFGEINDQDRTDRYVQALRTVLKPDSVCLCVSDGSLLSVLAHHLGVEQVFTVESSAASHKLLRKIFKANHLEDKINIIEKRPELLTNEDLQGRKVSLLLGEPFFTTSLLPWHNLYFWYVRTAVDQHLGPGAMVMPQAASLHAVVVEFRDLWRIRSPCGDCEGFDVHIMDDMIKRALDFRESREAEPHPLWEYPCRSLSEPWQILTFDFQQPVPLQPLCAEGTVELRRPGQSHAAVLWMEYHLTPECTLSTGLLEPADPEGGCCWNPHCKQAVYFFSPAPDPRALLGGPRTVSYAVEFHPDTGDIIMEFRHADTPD
Briefly: human MTase selectivity panel and IC50.

Another assay has as its target T3, G9a (Homo sapiens, UniProt Q96KQ7).
T3 sequence (Q96KQ7 1-1210): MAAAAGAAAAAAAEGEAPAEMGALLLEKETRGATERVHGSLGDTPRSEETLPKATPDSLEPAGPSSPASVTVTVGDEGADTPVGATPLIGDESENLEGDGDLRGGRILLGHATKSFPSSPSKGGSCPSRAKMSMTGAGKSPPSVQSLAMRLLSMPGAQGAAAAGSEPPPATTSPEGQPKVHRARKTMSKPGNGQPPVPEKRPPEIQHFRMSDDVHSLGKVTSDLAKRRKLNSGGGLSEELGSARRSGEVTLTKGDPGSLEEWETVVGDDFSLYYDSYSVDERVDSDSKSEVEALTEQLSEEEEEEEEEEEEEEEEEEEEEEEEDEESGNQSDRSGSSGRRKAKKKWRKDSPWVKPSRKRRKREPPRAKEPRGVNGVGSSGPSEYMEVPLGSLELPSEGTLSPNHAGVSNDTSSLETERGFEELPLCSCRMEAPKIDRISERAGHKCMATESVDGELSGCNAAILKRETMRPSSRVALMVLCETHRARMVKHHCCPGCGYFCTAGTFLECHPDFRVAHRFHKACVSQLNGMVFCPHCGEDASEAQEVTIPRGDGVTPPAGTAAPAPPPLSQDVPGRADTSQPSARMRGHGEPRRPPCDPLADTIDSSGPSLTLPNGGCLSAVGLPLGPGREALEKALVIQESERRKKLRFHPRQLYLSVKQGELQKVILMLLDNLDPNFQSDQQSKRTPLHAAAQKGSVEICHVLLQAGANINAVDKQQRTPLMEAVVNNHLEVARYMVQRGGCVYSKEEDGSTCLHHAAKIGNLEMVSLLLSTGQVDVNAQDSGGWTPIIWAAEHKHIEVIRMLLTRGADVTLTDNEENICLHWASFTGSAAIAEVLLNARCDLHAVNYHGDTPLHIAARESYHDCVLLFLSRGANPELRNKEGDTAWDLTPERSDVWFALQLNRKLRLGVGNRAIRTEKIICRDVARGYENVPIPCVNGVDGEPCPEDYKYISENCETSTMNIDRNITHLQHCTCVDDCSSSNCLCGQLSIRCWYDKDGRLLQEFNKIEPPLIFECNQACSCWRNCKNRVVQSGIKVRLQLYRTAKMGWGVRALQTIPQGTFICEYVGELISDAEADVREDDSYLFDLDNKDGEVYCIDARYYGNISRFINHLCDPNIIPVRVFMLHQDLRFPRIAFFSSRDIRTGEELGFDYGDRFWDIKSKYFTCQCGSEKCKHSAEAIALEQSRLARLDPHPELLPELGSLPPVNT
Nature of the assay: human MTase selectivity panel.

The target of a further assay is T4, BCDIN3D (Homo sapiens, UniProt Q7Z5W3).
T4 sequence (Q7Z5W3 1-292): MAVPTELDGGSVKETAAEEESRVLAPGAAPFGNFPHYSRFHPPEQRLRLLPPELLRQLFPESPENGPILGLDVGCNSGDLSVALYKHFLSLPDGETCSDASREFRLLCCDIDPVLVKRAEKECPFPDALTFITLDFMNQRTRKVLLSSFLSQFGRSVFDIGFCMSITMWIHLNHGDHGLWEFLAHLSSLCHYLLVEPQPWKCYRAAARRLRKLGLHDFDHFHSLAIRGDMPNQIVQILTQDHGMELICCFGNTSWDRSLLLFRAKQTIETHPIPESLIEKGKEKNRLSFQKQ
Briefly: human MTase selectivity panel.

Where [2] appears, read: average ± SD, read-out: Activity (%) at 10 µM Average.
The mark [3] stands for this setting: read-out: Activity (%) at 10 µM Replicate 1.
The mark [4] stands for this setting: read-out: Activity (%) at 10 µM Replicate 2.
The mark [5] stands for this setting: read-out: Activity (%) at 10 µM Replicate 3.

Where two headings read alike, the source gives them in different places.

Sequence of SUV420H2 (Q86Y97 whole entry): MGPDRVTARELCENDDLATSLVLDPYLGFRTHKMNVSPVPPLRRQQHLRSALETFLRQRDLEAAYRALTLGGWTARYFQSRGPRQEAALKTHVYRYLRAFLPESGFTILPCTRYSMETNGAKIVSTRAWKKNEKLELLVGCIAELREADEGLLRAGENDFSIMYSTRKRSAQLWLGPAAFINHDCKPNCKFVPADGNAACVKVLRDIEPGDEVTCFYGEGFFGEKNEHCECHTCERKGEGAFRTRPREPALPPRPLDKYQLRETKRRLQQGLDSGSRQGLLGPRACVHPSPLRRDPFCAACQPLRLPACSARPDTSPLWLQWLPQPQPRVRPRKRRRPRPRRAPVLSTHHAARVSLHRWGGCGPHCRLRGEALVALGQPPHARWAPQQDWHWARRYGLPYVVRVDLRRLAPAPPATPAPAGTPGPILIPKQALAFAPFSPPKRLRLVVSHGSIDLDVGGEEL

Regarding `Nc1ncnc2c1ncn2[C@@H]1O[C@H](CSCc2ccc(Cl)cc2)[C@@H](O)[C@H]1O` [NSC620333], the activity at 10 µM on SUV420H2 (setting [2]) is 96 ± 9%; on SUV420H2 (setting [3]) it was 96%; at SUV420H2 (setting [4]) it was 104%; on SUV420H2 (setting [5]), 86%; at SUV39H1 (setting [2]), 96 ± 4%; at SUV39H1 (setting [3]) it was 99%. Also, the activity at 10 µM at SUV39H1 (setting [4]) turned out to be 91%; at SUV39H1 (setting [5]) it was 97%; in assay [1] (PRMT7, average ± SD, read-out: Activity (%) at 10 µM Average) it was 32 ± 3%; in assay [1] (PRMT7, read-out: Activity (%) at 10 µM Replicate 1), 35%; in assay [1] (PRMT7, read-out: Activity (%) at 10 µM Replicate 2), 29%; in assay [1] (PRMT7, read-out: Activity (%) at 10 µM Replicate 3), 32%. Also, the activity at 10 µM at G9a (setting [2]) was found to be 89 ± 9%; at G9a (setting [3]), 97%; at G9a (setting [4]), 79%; on G9a (setting [5]), 91%; on BCDIN3D (setting [2]), 62 ± 5%; at BCDIN3D (setting [3]), 57%. For the same compound, the values for the activity at 10 µM at BCDIN3D (setting [4]) and at BCDIN3D (setting [5]) were 66% and 64%, respectively. Besides, the 50% inhibitory concentration (IC50) in assay [1] (PRMT7) came out at 7 ± 1.5 µM. In addition, the “Hill Slope” value in assay [1] (PRMT7 IC50 curve) is given as -1.9.

For orientation: IC50 means the point on the concentration scale where inhibition reaches its midpoint. Higher therefore signals weaker potency.
